Assay [1] deals with T1, AURKB (MV4-11^AURKB-HiBiT cells) (Homo sapiens, UniProt Q96GD4).
T1 construct: expressed in transfected cells; host or cells: MV4-11, lentiviral transduction (pRRL-PGK vector)
The assay is described as follows: HiBiT assay, AURKB degradation. Particulars: 6 h treatment; for DC50: read-out: DC50 (half-maximal degradation concentration) AURKB. Type of assay: cell-based. The gist of the method:
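MV4-11 lines stably expressing HiBiT-tagged AURKA, AURKB or TTK (lentiviral) were treated with serial compound dilutions for the indicated times. Remaining tagged protein was read by lytic HiBiT luminescence, and DC50 was fitted with a four-parameter dose–response equation using concentrations showing sigmoidal behaviour.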
(In general: The HiBiT peptide binds its large partner to form an active luciferase.)

Another assay deals with MV4-11 cells (naive). Put plainly: alamarBlue cell viability assay. In kind it is cell-based, human. The conditions noted are these: 72 h treatment, MV4-11 cells (naive); read-out: EC50 (concentration that decreases cell viability by 50%). In a few lines: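 Cells exposed to compound concentration series or vehicle for 72 h (unless otherwise stated); alamarBlue added a few hours before end point. Read-out by fluorescence (ex 550/em 600 nm) or absorbance (570 nm, 600 nm reference).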
(Alamar Blue is a resazurin reagent that responds to reducing activity.)

Another assay has as its target T2, TTK (Homo sapiens, UniProt P33981).
T2 sequence (P33981 1-857): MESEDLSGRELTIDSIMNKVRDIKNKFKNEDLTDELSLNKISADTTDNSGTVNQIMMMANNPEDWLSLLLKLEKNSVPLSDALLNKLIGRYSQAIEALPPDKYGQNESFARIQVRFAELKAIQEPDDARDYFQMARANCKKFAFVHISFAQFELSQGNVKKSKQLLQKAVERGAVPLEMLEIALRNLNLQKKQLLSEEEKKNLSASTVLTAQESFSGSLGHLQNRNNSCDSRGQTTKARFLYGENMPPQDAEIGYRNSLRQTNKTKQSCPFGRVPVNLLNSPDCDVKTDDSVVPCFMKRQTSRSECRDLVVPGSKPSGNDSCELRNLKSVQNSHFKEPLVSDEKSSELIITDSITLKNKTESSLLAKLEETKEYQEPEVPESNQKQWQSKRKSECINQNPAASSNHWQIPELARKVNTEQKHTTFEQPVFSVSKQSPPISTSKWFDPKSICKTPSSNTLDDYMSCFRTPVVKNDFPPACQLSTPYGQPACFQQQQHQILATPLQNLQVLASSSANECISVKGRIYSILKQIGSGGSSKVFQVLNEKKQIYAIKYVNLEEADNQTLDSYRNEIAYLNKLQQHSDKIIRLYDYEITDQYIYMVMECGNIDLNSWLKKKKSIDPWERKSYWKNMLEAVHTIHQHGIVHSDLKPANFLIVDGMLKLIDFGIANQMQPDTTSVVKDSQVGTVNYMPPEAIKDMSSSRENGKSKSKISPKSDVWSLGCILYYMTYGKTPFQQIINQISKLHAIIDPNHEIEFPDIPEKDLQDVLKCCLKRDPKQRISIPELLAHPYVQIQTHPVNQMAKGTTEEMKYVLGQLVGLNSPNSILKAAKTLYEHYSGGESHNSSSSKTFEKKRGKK
Put plainly: Immunoblot of TTK in CALU1 cells. Set-up: endogenous in cells. The conditions noted are these: 6 h. Type of assay: cell-based. As for the experimental part:
The cells were treated with compounds or vehicle for indicated time points and lysed in RIPA lysis buffer (50 mM HEPES pH 7.9, 140 mM NaCl, 1 mM EDTA, 1% Triton X-100, 0.1% SDS, 0.1% sodium deoxycholate) containing protease and phosphatase inhibitors (Sigma) for 20 min at 4 °C. Cell lysates were cleared by centrifugation, and protein concentration was determined with bicinchoninic acid assay. Equal amounts of protein per sample were separated by Bis-Tris-PAGE and transferred to PVDF membranes (Millipore). The membranes were blocked with 5% (w/v) nonfat dry milk in TBS-T [20 mM Tris–HCl, pH 7.5, 150 mM NaCl, 0.1% (v/v) Tween-20] for 1 h at room temperature and incubated with primary antibody at 4 °C overnight. Visualization was carried out using horseradish peroxidase (HRP)-labeled secondary antibodies and detected using a chemiluminescent HRP substrate (Millipore) in LAS3000 or LAS4000 mini (Fujifilm). Vinculin, GAPDH, or B-actin were used as a loading control. The loading control was probed along with the target antibody by cutting the membrane. For targets with similar molecular weights, the samples were run in duplicate and probed with their respective loading controls, although only one control was shown in the figure for all targets. The signal was quantified using ImageJ or Image Studio Lite against the corresponding loading controls. Antibodies used in this study were as follows: Aurora A/AIK (Cell Signaling Technology, 3092), Aurora B (Bethyl Laboratories, A300–431A), TTK (Santa Cruz Biotechnology, sc-56968), GAPDH (Cell Signaling Technology, 2118), B-Actin (Sigma, A5441), and Vinculin (Sigma, V9131). […]
Figure S2: Cellular degradation studies of SF1-based compounds. […]
(E), 18 (F), and 14 or 20 (G) for 6 h and compared with vehicle treated cells. (H-J) Immunoblots of TTK and AURKB. CALU1 cells were treated with indicated concentration of 14 or 20 (H), 44 or 47 (I), and 46 (J) for 6 h and compared with DMSO treated cells. All HiBiT data are represented as a mean ±s.d. from n=2 replicates. […]
For orientation: Immunoblotting shows a protein as a band on a membrane.

T1 sequence (Q96GD4 1-345 isoform Q96GD4-5): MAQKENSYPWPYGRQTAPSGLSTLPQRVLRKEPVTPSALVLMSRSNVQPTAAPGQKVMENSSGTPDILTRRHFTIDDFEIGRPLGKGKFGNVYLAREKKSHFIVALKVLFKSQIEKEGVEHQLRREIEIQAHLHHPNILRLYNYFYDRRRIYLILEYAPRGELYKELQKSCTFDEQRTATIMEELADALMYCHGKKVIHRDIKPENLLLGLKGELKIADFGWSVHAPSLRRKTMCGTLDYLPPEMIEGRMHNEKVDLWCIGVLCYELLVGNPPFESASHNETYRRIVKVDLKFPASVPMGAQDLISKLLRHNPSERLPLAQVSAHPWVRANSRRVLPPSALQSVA

Regarding `CC(C)S(=O)(=O)c1ccccc1Nc1nc(Nc2ccc(N3CCN(C(=O)CCCC(=O)Nc4cccc5c4C(=O)N(C4CCC(=O)NC4=O)C5=O)CC3)cc2)nc2[nH]cnc12` (stereo not shown) [Compound 14], in assay [1], the “Dmax (maximal degradation) AURKB” value was 38.80% and the DC50 worked out at 168 nM. Further, in the assay with MV4-11 cells (naive), the EC50 is 214 nM. Moreover, the “relative TTK level (immunoblot quantification, DMSO = 1.00)” value (from here on “relative TTK level”) at TTK (10 µM) was determined as 1.00.

Take `CC(C)S(=O)(=O)c1ccccc1Nc1nc(Nc2ccc(N3CCN(C(=O)CNC(=O)CCCC(=O)Nc4cccc5c4C(=O)N(C4CCC(=O)NC4=O)C5=O)CC3)cc2)nc2[nH]cnc12` (stereo not shown) [Compound 20]: in assay [1], the “Dmax (maximal degradation) AURKB” value is 29.40% and the DC50 amounted to 248 nM. Also, the EC50 with MV4-11 cells (naive) is 577 nM. Also, the “relative TTK level” value at TTK (0.1 µM) was 0.87.

With `Cc1ncsc1-c1ccc(CNC(=O)[C@@H]2C[C@@H](O)CN2C(=O)[C@@H](NC(=O)CCCC(=O)N2CCN(c3ccc(Nc4nc(Nc5ccccc5S(=O)(=O)C(C)C)c5nc[nH]c5n4)cc3)CC2)C(C)(C)C)cc1` [Compound 44], in assay [1], the “DC50 (half-maximal degradation concentration) AURKB” value was “– (compounds with degradation less than 25% were not calculated and reported as “–”)”; the “Dmax (maximal degradation) AURKB” value is listed as 20.30%. Moreover, the EC50 in the assay with MV4-11 cells (naive) amounted to 1160 nM. For the same molecule, the “relative TTK level” value on TTK (0.01 µM) was 0.79. Further, the “relative TTK level” value on TTK (0.1 µM) is given as 0.79.

With `Cc1ncsc1-c1ccc(CNC(=O)[C@@H]2C[C@@H](O)CN2C(=O)[C@@H](NC(=O)COCCOCC(=O)N2CCN(c3ccc(Nc4nc(Nc5ccccc5S(=O)(=O)C(C)C)c5nc[nH]c5n4)cc3)CC2)C(C)(C)C)cc1` [Compound 49], in assay [1], the “Dmax (maximal degradation) AURKB” value turned out to be 32.17% and the DC50 came out at 3690 nM. For the same molecule, the EC50 with MV4-11 cells (naive) amounted to 2560 nM.
